In patent US20090202518A1, “Treatment of sepsis and inflammation with alpha2A Adrenergic antagonists” (The Feinstein Institute of Medical Research, priority 2005, published 2009):
“Also recorded” adds a separate entry of the source.

How the values were obtained:
Kupffer cells (KCs) = assay: TNF-α release from cultured Kupffer cells; type: cell-based
Text: The nervous system regulates the inflammatory response in real time. Our previous studies have shown that the sympathetic neurotransmitter, norepinephrine (NE), increases TNF-α release via activation of α2A-adrenoceptor (α2A-AR) on Kupffer cells (KCs). In cultured KCs, NE increases the release of TNF-α by 3.4-fold and a specific antagonist for α2A-AR, BRL-44408 maleate, reduces TNF-α secretion by 51%. However, it remains unknown whether in vivo administration of α2A-AR antagonists in sepsis is beneficial.

[1] = tested on: male rats with sepsis induced by cecal ligation and puncture (CLP); assay: Cecal ligation and puncture (CLP) model of sepsis in rats; type: in vivo, rat
Method: Sepsis was induced in male rats by cecal ligation and puncture (CLP). The CLP model of sepsis has been used extensively as a reliable model of the pathophysiologic and immunologic alterations in human sepsis.
BRL-44408 maleate (2.5 mg/kg BW) was administered intravenously at the time of CLP. Twenty hours after CLP, the rats were sacrificed and blood and liver samples were collected. Serum levels of TNF-α, liver enzymes (i.e., AST and ALT), lactate and creatinine were measured. Gene expression of TNF-α in the liver was analyzed. In additional groups of animals, the necrotic cecum was excised at 20 h post-CLP and the 10-day survival was recorded.

[2] = 2.5 mg/kg BW intravenously at the time of CLP, 20 h after CLP, means±SE, n = 6/group

Row | SMILES | reduction of TNF-α secretion (Kupffer cells (KCs)) [%] | ALT (serum level) [1, 2] [IU/L] | AST (serum level) [1, 2] [IU/L] | Creatinine (serum level) [1, 2] [mg/dL] | Lactate (serum level) [1, 2] [mg/dL] | TNF-α (serum level) [1, 2] [pg/mL] | TNF-α/G3PDH (mRNA) ([1]; liver gene expression, 2.5 mg/kg BW intravenously at the time of CLP, 20 h after CLP, means±SE, n = 6/group) | 10-day survival / mortality ([1]; necrotic cecum excised at 20 h post-CLP, FIG. 1) | increase of the release of TNF-α (Kupffer cells (KCs)) [fold]
1 | CC1c2ccccc2CN1CC1=NCCN1.O=C(O)/C=C\C(=O)O (stereo not drawn) [BRL-44408 maleate] | 51 | 20.5 ± 4.5 | 20.9 ± 5.3 | 1.1 ± 0.2 | 20.6 ± 1.9 | 91.8 ± 8.1 | 0.5 ± 0.1 | increased survival; also recorded: reduced mortality | 
2 | NC[C@H](O)c1ccc(O)c(O)c1 [NE, norepinephrine] |  |  |  |  |  |  |  |  | 3.4
